Data on one compound can be found in patent US9205108B2, “Treatment of traumatic brain injury by using gallium compounds to reduce oxidative stress levels” (priority 2012, dated 2015).

For one test, the system named is protein carbonyls. Nature of the test: Protein carbonyl analysis (slot blot, 2,4-DNP) of whole brain homogenate after controlled cortical contusion. Type of test: in vivo, C57BL/6NHsd mice. The following applies: for Protein carbonyl: difference compared to control (sham): whole brain homogenate. How it is done: (§1) Twenty C57BL/6NHsd mice were used for a study. Mice were set into five groups: sham, 15 minutes saline, 15 minutes gallium, 30 minutes gallium, and 30 minutes saline. A moderate controlled cortical contusion was given to all animals except the four animals in the sham group. The 15 minutes gallium group was injected with 10 mg/kg gallium nitrate at 15 minutes post injury. The 15 minutes saline group was injected with saline at 15 minutes post injury. The 30 minutes gallium group was injected with 10 mg/kg gallium nitrate at 30 minutes post injury. The 30 minutes saline group was injected with saline at 30 minutes post injury. A sample size of 4 was used for each group except gallium nitrate treated samples at 15 minutes post injury (n=3), gallium nitrate treated samples at 30 minutes post injury (n=5), and saline treated animals at 30 minutes (n=3).
(§2) A gallium compound was delivered by injection, in particular, intraperitoneal injection. […] Due to this unequal pairing, statistics (Student's t-test) were performed using unpaired analysis. P values <0.05 were deemed significant. Western blots (slot blots) were run for all samples and immunoblotting was performed with the following antibodies 2,4-DNP (protein carbonyls) and anti-3-nitrotyrosine (protein nitration). All blots were run twice for reproducibility. All samples were compared to sham (craniotomy only, but no injury), which has been used as a baseline (control).
(§3) The two parameters for oxidative stress were run on whole brain homogenate using immunochemical detection.

For test [1] the following is noted: 100-300 mg/m²/day over 5-7 days; cited from earlier work.
Another test relates to 3-nitrotyrosine (3-NT). Description: Protein nitration analysis (slot blot, anti-3-nitrotyrosine) of whole brain homogenate after controlled cortical contusion. In kind it is in vivo, C57BL/6NHsd mice. The following applies: for Protein nitration (3-NT): difference compared to control (sham): whole brain homogenate. How it is done:
as §1, §2, §3
Protein nitration is determined by indexing levels of 3-nitrotyrosine (3-NT). […] The difference between saline groups and the gallium groups at 30 minutes was statistically significant.

Where [2] appears, read: 10 mg/kg intraperitoneal injection at 15 minutes post injury.
The mark [3] stands for this setting: 10 mg/kg intraperitoneal injection at 30 minutes post injury.

As for `O=[N+]([O-])[O-].O=[N+]([O-])[O-].O=[N+]([O-])[O-].[Ga+3]` [Gallium nitrate, gallium nitrate], the “Protein carbonyl: difference compared to control (sham)” value in the test on protein carbonyls (setting [2]) came to 17.5% reduction; with protein carbonyls (setting [3]), 6.6% reduction. In addition, in the test with protein carbonyls (both time points (15 and 30 minutes post injury)), the “Oxidative stress (protein carbonyls), result in words” value is “reduction in oxidative stress”. Moreover, the “Reduction of calcium excretion” value in test [1] is 70+18%. The “Protein nitration (3-NT): difference compared to control (sham)” value in the test on 3-nitrotyrosine (3-NT) (setting [2]) turned out to be 61.3% increase; in the test on 3-nitrotyrosine (3-NT) (setting [3]) it was 18.1% increase. The “Levels of 3-NT, result in words” value was “increase in the levels of 3-NT” in the test on 3-nitrotyrosine (3-NT) (treatment at 15 minutes post injury) and “significant reduction in the levels of 3-NT” in the test on 3-nitrotyrosine (3-NT) (treatment at 30 minutes post injury, difference to saline group statistically significant).
